The nature of this data set: Human HepG2 cell viability assay in 384 well format. It is filed as toxicity, cell-based. Also noted: dose 125 nL, time 70.5 hour; concentration not given beside the values. Conditions: HepG2 cells, read-out: Inhibition.
Take `Cc1c(CS(C)(=O)=O)cccc1NC(=O)CC1CCCC1`: the cytotoxicity at 70.5 h is -7.53%. As to `Cc1cc(C(=O)NCC2CCC3(CC2)OCCO3)[nH]n1`, the cytotoxicity at 70.5 h worked out at 1.56%. The same measure for `C1CCC(CNC2CCCN(Cc3noc(C4CC4)n3)C2)CC1` (stereo not drawn): -15.3%; for `O=C(NCc1ccccc1Cn1cncn1)N1CCCC1`: -12.2%.

On to `CN(C)C(=O)CCS(=O)(=O)Cc1coc(-c2ccc(F)cc2)n1`, for which the cytotoxicity at 70.5 h was -16.4%. As for `CNC(=O)CS(=O)(=O)Cc1coc(-c2cccc(F)c2)n1`, the cytotoxicity at 70.5 h was -8.64%.

For the compound `Cc1nnc(CN2CCC(c3nc4cc(Cl)ccc4o3)CC2)n1C`, the cytotoxicity at 70.5 h was -18.9%. The same measure for `Clc1ccc2oc(C3CCN(Cc4nc(C5CC5)no4)CC3)nc2c1`: -16.3%. With `CCc1nnc(CN2CCC(c3nc4cc(Cl)ccc4o3)CC2)o1`, the cytotoxicity at 70.5 h was -11.3%. The same measure for `CN(CC(=O)N1CCN(c2cnccn2)CC1)c1ccc(Cl)cn1`: -13.1%; for `COc1ccc(NC(=O)COc2nn(C)c3nc(C)cc(C)c23)cn1`: -18.4%. The same measure for `Cc1cc(NC(=O)CN2CCc3c(nc(C(C)C)n3C)C2)on1`: -14.3%.

With `CS(=O)(=O)CCCSc1cccc(C#N)c1`, the cytotoxicity at 70.5 h is -13%.

For `COc1cc(C(=O)NS(=O)(=O)c2cncc(Br)c2)cc(Cl)c1OC`, the cytotoxicity at 70.5 h was -15.8%. Turning to `CCN(CC)C(=O)CNC(=O)N1CCC(c2ccccc2)C1` (stereo not drawn), the cytotoxicity at 70.5 h was -6.54%. Consider `CC(CNC(=O)c1cc(Cl)ccc1F)N1CCCC1` (stereo not drawn), for which the cytotoxicity at 70.5 h is -13.5%.

`CNC(=O)N1CCCCC1CCNS(C)(=O)=O` (stereo not drawn): the cytotoxicity at 70.5 h is -13.3%. For the compound `C1CC(NCC2CC2)CN(Cc2noc(C3CC3)n2)C1` (stereo not drawn), the cytotoxicity at 70.5 h was -15.4%. For `CN(Cc1ccc(Cl)s1)C(=O)c1ccccc1OCC(N)=O` the value was -14.1%; for `CS(=O)(=O)CCNC1CCCN(Cc2noc(C3CC3)n2)C1` (stereo not drawn), -13.7%. For `Cc1cc(NC(=O)NCCc2ccc3c(c2)OCCO3)n(C)n1` the value was -4.79%; for `CN1CCN(C(CNC(=O)c2ccc(Cl)cc2F)c2cccs2)CC1` (stereo not drawn), 42.7%; for `CC(Cn1cccn1)NC(=O)Nc1ccc(N2CCCC2)nc1` (stereo not drawn), 10.1%. For `CN(CC(N)=O)Cc1ccc(F)cc1Cl` the value was -5.08%. Consider `CCc1nnc2n1CCN(Cc1csc(-c3ccccc3F)n1)C2`, for which the cytotoxicity at 70.5 h was -7.77%. The same measure for `Cc1cc(N(C)C)nc(N2CCN(Cc3nccn3C)CC2)n1`: -5.76%; for `CCOc1cc(C)nc(N2CCN(Cc3nccn3CC)CC2)n1`: 7.28%; for `CC(C)c1nnc2n1CCN(Cc1csc(-c3cnn(C)c3)n1)C2`: -2.14%. The same measure for `Cc1csc(NC(=O)CN2CCc3nn(C)c(=O)cc3C2)n1`: -8.05%; for `Cn1ccnc1-c1cccc(NC(=O)NCC(=O)NC(C)(C)C)c1`: 4.86%; for `Cn1nc2c(cc1=O)CN(CC(=O)Nc1nncs1)CC2`: -1.1%.

In the case of `CC(C)NC(=O)CCNC(=O)Nc1cccc(-c2nccn2C)c1`, the cytotoxicity at 70.5 h is -2.81%. The same measure for `CCn1nc2c(cc1=O)CN(CC(=O)Nc1cc(C)no1)CC2`: -0.888%.

As to `CC(C)c1cc(NC(=O)CN2CCc3nn(C)c(=O)cc3C2)on1`, the cytotoxicity at 70.5 h is -4.73%. The same measure for `Cn1cc(-c2csc(N3CCSCC3)n2)cn1`: -3.33%; for `Fc1cccc(-n2cccn2)c1NCc1nnc(C2CC2)o1`: -2.54%; for `CC(=O)NCCc1ccc(S(=O)(=O)N(C)C(C)C(C)(C)C)s1` (stereo not drawn): -9.01%. The same measure for `CCc1nnc2n1CCN(Cc1csc(-c3ccccc3)n1)C2`: -12.9%. For `CC(C)C(O)C1(CNC(=O)Nc2ccc(CN3CCOC3=O)cc2)CC1` (stereo not drawn) the value was -11.3%. Turning to `CCn1ccnc1CN1CCN(c2nc(C)cc(OC)n2)CC1`, the cytotoxicity at 70.5 h is -9.98%.

As to `COc1cccnc1NC(=O)COc1ccc(F)cc1F`, the cytotoxicity at 70.5 h was -6.39%. As to `NC(=O)C1CCN(Cc2cc3c(cc2Br)OCCO3)C1` (stereo not drawn), the cytotoxicity at 70.5 h is -1.46%. For `Cc1nc(C(C)(C)NC(=O)Nc2ccc(C#N)cc2)no1` the value was -4.52%. For `COCCN(Cc1ccc(F)cc1Cl)C(=O)c1cnn(C)c1C` the value was 7.76%. On to `COCCN(Cc1ccc(F)cc1Cl)C(=O)c1c(C)noc1C`, for which the cytotoxicity at 70.5 h was found to be 2.4%.

Turning to `CCOC(=O)NCCNC(=O)c1cc(Br)cn1C(C)C`, the cytotoxicity at 70.5 h came to 9.21%. For `Cc1ccc(C(=O)N2CCOC(c3nc(C(C)(C)C)n[nH]3)C2)c(=O)[nH]1` (stereo not drawn) the value was 0.0481%; for `Cc1cc(C(=O)Nc2ccnc(OC3CCOC3)c2)c(C)o1` (stereo not drawn), -1.8%. For `O=C(Nc1ccnc(OC2CCOC2)c1)c1ccccc1Cl` (stereo not drawn), the cytotoxicity at 70.5 h is -4.06%. Take `CCOCCN1CCN(Cc2nnc(C3CC3)o2)CC1`: the cytotoxicity at 70.5 h was -2.06%.

On to `CCOCCN1CCN(Cc2nc(C)no2)CC1CC` (stereo not drawn), for which the cytotoxicity at 70.5 h was -2.4%.

Turning to `OCCOc1cc(F)ccc1NCc1nc(-c2cccs2)no1`, the cytotoxicity at 70.5 h is -10.9%.

With `Cc1ccccc1-c1noc(CNc2ccc(F)cc2OCCO)n1`, the cytotoxicity at 70.5 h amounted to 1.21%. For `Cc1ccc2cc(C(=O)N3CCN(C(=O)c4ccoc4)CC3)[nH]c2c1` the value was 8.19%; for `Cc1occc1CN(C)C(=O)Nc1ccc(=O)n(C)c1`, -7.93%; for `CC(NCc1ccccc1O)c1ccc(-n2ccnc2)cc1` (stereo not drawn), 26.4%. Take `Cc1nnc2n1CC(CNc1cnc3ccccc3n1)CC2` (stereo not drawn): the cytotoxicity at 70.5 h is -9.52%. Regarding `CC(C)c1nnc2n1CC(CNc1cnc3ccccc3n1)CC2` (stereo not drawn), the cytotoxicity at 70.5 h was -9.13%. The same measure for `OCCOc1cc(F)ccc1NCc1nc(-c2ccoc2)no1`: 8.3%; for `CCc1nnc2n1CC(CNc1cnc3ccccc3n1)CC2` (stereo not drawn): 1.47%; for `Cc1n[nH]cc1CNC1CCN(c2cccc(C(F)(F)F)c2)CC1`: 2.2%.

Turning to `Cn1[nH]c(C2CC2)c(-c2ccc3c(c2)OCO3)c1=N`, the cytotoxicity at 70.5 h is 8.3%.

For `Cc1cnn(CC(=O)NCC2(O)CCCc3ccccc32)c1` (stereo not drawn), the cytotoxicity at 70.5 h was 2.95%. The same measure for `CCc1nc(Cn2c(=O)n(C)c3ccccc32)no1`: -6.86%; for `OCc1cc2ccccc2nc1NCC1(O)CCC1`: -8.77%. For `CCNC(=O)N1CCC(NC(=O)NCCc2ccc(C)cc2C)C1` (stereo not drawn), the cytotoxicity at 70.5 h was -3.65%. The same measure for `OCc1cc2ccccc2nc1NCC1CCN(CC(F)(F)F)C1` (stereo not drawn): 27.3%; for `CCNC(=O)N1CCC(NC(=O)NCCc2cc(F)cc(F)c2)C1` (stereo not drawn): 1.55%. The same measure for `CN(Cc1ccncc1)C(=O)NCc1cn(-c2ccccc2)nn1`: -8.45%. The same measure for `CCOCCN1CCN(Cc2nnc(-c3occc3C)o2)CC1`: 9.82%; for `CCOCCN1CCN(Cc2nnc(-c3ccco3)o2)CC1`: -5.68%; for `Cc1cc(CSC2CCCN(c3cnn(C)c3)C2=O)no1` (stereo not drawn): -3.62%. Take `CC(C)(C)CC(=O)NCC(=O)Nc1ccn(Cc2ccccc2)n1`: the cytotoxicity at 70.5 h was -11%. As to `NC(=O)NC(=O)CNC1(c2ccc(Cl)cc2)CCCC1`, the cytotoxicity at 70.5 h was -17.2%.

`Cn1nc(Br)c2c(NCCS(N)(=O)=O)ncnc21`: the cytotoxicity at 70.5 h stood at 28.8%. In the case of `Cn1nc(Br)c2c(NCCCS(N)(=O)=O)ncnc21`, the cytotoxicity at 70.5 h was -22.7%. The same measure for `COCCCNC(=O)CN1CCSC(c2ccccc2)C1` (stereo not drawn): 3.9%; for `CC(C)(C)CC(=O)NCC(=O)Nc1ccn(CCCn2ccnc2)n1`: -2.26%; for `O=C(c1ccc(N2CCCC2)nc1)N1CCCC(c2nccs2)C1` (stereo not drawn): -20.6%. For `COc1ccc(C(C)NC(=O)N2CCNC(=O)CC2)cc1F` (stereo not drawn) the value was -1.24%.

As to `CN1CC(C(=O)NC2(c3cccc(F)c3)CCOCC2)CC1=O` (stereo not drawn), the cytotoxicity at 70.5 h is -7.9%. The same measure for `Cn1cc(N2CCCC(SCc3nc(C4CC4)no3)C2=O)cn1` (stereo not drawn): 29.8%. For `CC(C)(C)NC(=O)CNC(=O)Nc1cc(-c2ccccc2)ns1` the value was -14.8%; for `CCC1CN(c2ncnc3nc[nH]c23)CCO1` (stereo not drawn), 11.7%. For `CC(C)C(=O)NCCCNC(=O)Nc1cc(-c2ccccc2)ns1` the value was -12.9%. Take `CC(C(=O)NCC1CCN(c2ccncc2)CC1)S(C)(=O)=O` (stereo not drawn): the cytotoxicity at 70.5 h is -7.42%. For `FC(F)CN1CCC(NCc2ccc(-n3cccn3)nc2)CC1` the value was -9.95%; for `O=C(Nc1ccc(-n2cccn2)cc1)N1CCC(O)C1` (stereo not drawn), 28.4%. For `CC(C)Cc1nc(CSC2CCCN(c3cnn(C)c3)C2=O)no1` (stereo not drawn) the value was -1.14%. For `c1ccc(-n2nnnc2CNCc2ccc3c(c2)OCCO3)cc1` the value was -8.49%; for `CCc1nc(CSC2CCCN(c3cnn(C)c3)C2=O)cs1` (stereo not drawn), 7.29%.

Consider `Cc1ccccc1OCCN1CCCC1CS(N)(=O)=O` (stereo not drawn), for which the cytotoxicity at 70.5 h worked out at 0.0321%. For `CCn1nc2c(cc1=O)CN(CCOc1ccccc1C#N)CC2` the value was -8.44%; for `O=C(CN1CCSC(c2ccccc2)C1)NCc1ccccn1` (stereo not drawn), -5.23%.

For the compound `Cn1cc(N2CCCC(SCc3ccco3)C2=O)cn1` (stereo not drawn), the cytotoxicity at 70.5 h was 14.8%.

`CCC(C(=O)NCC1CCN(c2ccncc2)CC1)N(C)C` (stereo not drawn): the cytotoxicity at 70.5 h is -7.96%.

As for `Cc1cccc(CNCC2COC3(CCCCC3)O2)c1C` (stereo not drawn), the cytotoxicity at 70.5 h is 34.7%. As for `CS(=O)(=O)CCNCc1ccc(OCc2cscn2)cc1`, the cytotoxicity at 70.5 h was -3.66%. The same measure for `Cc1ncsc1CNC(=O)N1CCN(Cc2ccccc2)C[C@H]1C`: -3.58%. For `Cc1cc(CNC(=O)N2CCN(Cc3ccccc3)C[C@H]2C)on1` the value was 30.7%; for `CCNC(=O)CCC(=O)Nc1ccc2nn(C(C)C)cc2c1`, 18.4%.

On to `Cc1ncsc1CNC(=O)N1CCN(Cc2ccccc2)CC1C` (stereo not drawn), for which the cytotoxicity at 70.5 h was -9.74%. The same measure for `Cn1nc(C2CCCC2)c(-c2ccc3c(c2)OCO3)c1N`: -8.03%.

These data come from ChEMBL document CHEMBL3507680, “University of Dundee, Gates Library screen for HepG2 cell viability”.
